In BindingDB's records for patent US10030020 (ABIDE THERAPEUTICS, INC., 2018):

Target: T1, Monoacylglycerol lipase ABHD6 (Mus musculus, UniProt Q8R2Y0)
T1 sequence (Q8R2Y0 whole entry): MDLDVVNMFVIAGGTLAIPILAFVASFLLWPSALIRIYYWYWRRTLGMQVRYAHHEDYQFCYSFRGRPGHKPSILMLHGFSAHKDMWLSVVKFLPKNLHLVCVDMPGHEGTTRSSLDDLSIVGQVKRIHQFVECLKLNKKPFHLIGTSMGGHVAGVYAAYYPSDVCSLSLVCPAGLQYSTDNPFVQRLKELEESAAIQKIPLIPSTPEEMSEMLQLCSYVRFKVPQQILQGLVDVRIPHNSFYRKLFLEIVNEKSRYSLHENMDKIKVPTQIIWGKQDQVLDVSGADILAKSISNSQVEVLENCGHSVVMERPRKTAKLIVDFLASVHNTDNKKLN
Experiment: In Vitro Competitive Activity-Based Protein Profiling
Procedure: Proteomes (mouse brain membrane fraction or cell lysates) (50 μL, 1.0 mg/mL total protein concentration) were preincubated with varying concentrations of inhibitors at 37° C. After 30 min, FP Rh (1.0 μL, 50 μM in DMSO) was added and the mixture was incubated for another 30 min at 37° C. Reactions were quenched with SDS loading buffer (50 μL-4×) and run on SDS-PAGE.

- IC50: > 1000 nM
SMILES: O=C(OC(C(F)(F)F)C(F)(F)F)N1CCC2(CCCN2Cc2ccc(OCCN3CCOCC3)cc2)CC1 [US10030020, Example 14]
